Experimental findings from ChEMBL document CHEMBL1126477 (Bioorg Med Chem Lett, 1993) are described below.

Molecules are shown by their SMILES.

Assay [1] deals with T1, Angiotensin II receptor (Rattus norvegicus, UniProt P29089+P25095+P35351).
T1 sequence (P29089 whole entry): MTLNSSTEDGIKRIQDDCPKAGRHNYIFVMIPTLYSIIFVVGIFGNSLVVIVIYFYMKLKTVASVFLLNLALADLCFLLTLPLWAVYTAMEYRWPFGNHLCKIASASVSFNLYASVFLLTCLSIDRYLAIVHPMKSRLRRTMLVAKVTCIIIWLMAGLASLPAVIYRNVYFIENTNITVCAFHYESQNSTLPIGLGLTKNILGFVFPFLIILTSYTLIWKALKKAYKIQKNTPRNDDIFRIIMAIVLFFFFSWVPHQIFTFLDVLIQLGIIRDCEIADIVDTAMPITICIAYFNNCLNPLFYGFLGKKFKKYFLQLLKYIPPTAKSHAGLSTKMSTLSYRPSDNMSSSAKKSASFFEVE
T1 sequence (P25095 whole entry): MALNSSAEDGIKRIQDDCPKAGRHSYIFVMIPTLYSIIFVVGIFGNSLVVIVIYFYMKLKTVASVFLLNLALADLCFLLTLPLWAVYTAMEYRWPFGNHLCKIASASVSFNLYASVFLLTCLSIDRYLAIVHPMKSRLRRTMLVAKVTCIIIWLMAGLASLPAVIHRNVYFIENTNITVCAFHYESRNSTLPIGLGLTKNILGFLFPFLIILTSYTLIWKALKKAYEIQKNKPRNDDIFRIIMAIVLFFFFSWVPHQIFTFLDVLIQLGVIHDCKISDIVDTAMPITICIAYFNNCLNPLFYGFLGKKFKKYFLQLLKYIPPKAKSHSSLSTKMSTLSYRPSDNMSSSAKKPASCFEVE
T1 sequence (P35351 whole entry): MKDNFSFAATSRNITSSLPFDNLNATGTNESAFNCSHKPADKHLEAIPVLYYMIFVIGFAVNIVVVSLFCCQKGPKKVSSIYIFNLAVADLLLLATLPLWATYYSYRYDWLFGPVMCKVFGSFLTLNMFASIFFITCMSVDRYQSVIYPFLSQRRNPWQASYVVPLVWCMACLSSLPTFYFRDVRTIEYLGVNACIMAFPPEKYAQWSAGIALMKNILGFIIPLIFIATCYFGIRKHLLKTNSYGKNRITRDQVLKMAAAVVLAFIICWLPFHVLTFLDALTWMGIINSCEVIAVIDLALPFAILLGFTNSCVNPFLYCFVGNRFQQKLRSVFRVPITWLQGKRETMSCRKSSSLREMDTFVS
Description: Angiotensin II receptor antagonist activity was determined by 50% inhibition of specific binding of [3H]angiotensin II (2 nM) to rat adrenal cortical microsomes.

Assay [2] deals with Rattus norvegicus. Description: The compound was tested for antihypertensive activity in renal hypertensive rat after intravenous administration. The assay is classed as functional.
The test system of assay [3] is Rattus norvegicus. Description: The compound was tested for antihypertensive activity in renal hypertensive rat after oral administration. It is filed as functional.

On to `CCCc1nc(C(F)(F)C(F)(F)C(F)(F)F)c(CO)n1Cc1ccc(-c2ccccc2-c2nn[nH]n2)cc1`, for which the IC50 in assay [1] worked out at 0.013 µM.
`CCCc1nc(C(F)(F)C(F)(F)F)c(C(=O)O)n1Cc1ccc(-c2ccccc2-c2nn[nH]n2)cc1`: the figures for the ED30 in assay [2] and in assay [3] were 0.042 mg/kg and 0.21 mg/kg, respectively.
The compound `CCCc1nc(C(F)(F)C(F)(F)C(F)(F)F)c(C(=O)O)n1Cc1ccc(-c2ccccc2-c2nn[nH]n2)cc1` registered an ED30 in assay [2] of 0.62 mg/kg.
In assay [1], `CCCc1nc(C(F)(F)C(F)(F)C(F)(F)C(F)(F)C(F)(F)C(F)(F)F)c(CO)n1Cc1ccc(-c2ccccc2C(=O)O)cc1` yielded an IC50 of 2.5 µM.
As to `CCCc1nc(C(F)(F)F)c(CO)n1Cc1ccc(-c2ccccc2C(=O)O)cc1`, the IC50 in assay [1] amounted to 0.13 µM.
On to `CCCc1nc(C(F)(F)F)c(CO)n1Cc1ccc(-c2ccccc2-c2nn[nH]n2)cc1`, for which, in assay [1], the IC50 came to 0.0064 µM.
Consider `CCCc1nc(C(F)(F)F)c(C(=O)O)n1Cc1ccc(-c2ccccc2-c2nn[nH]n2)cc1`, for which the ED30 in assay [2] amounted to 0.01 mg/kg; in assay [3] it was 0.79 mg/kg.
The compound `CCCc1nc(C(F)(F)C(F)(F)C(F)(F)F)c(CO)n1Cc1ccc(-c2ccccc2C(=O)O)cc1` showed a concentration for half-maximal inhibition (IC50) in assay [1] of 0.074 µM.
In assay [1], `CCCc1nc(C(F)(F)C(F)(F)F)c(CO)n1Cc1ccc(-c2ccccc2-c2nn[nH]n2)cc1` had an IC50 of 0.0012 µM.
For `CCCCc1nc(Cl)c(C(=O)O)n1Cc1ccc(-c2ccccc2-c2nn[nH]n2)cc1` [CARBOXYLIC ACID METABOLITE], the ED30 in assay [2] turned out to be 0.038 mg/kg; in assay [3] it was 0.66 mg/kg.
As for `CCCc1nc(C(F)(F)C(F)(F)F)c(CO)n1Cc1ccc(-c2ccccc2C(=O)O)cc1`, in assay [1], the IC50 was determined as 0.048 µM.
Still for that read-out and setting: under `CCCc1nc(C(F)(F)C(F)(F)C(F)(F)C(F)(F)F)c(CO)n1Cc1ccc(-c2ccccc2C(=O)O)cc1` stands 0.29 µM.
